Results published in US5750540A, “1,4-di-substituted piperidine derivatives” (Banyu Pharmaceutical Co., Ltd., priority 1995, dated 1998).
Read-outs that look alike come from different tables or passages of the source.

Legend:
[1] = tested on: M1 receptors (vas deferens); assay: Antagonism against M1 receptors in an isolated rabbit vas deferens; conditions: in vitro, agonist McN A-343, 10 min
Procedure: 1) Tests for antagonism against the M1 receptors in an isolated rabbit vas deferens
These tests were performed according to an ordinary method. A male Japanese albino rabbit (weighing bout 3 kg) was killed by exsanguination from a femoral artery under anesthesia with pentobarbital, and the vasa deferentia were excised. Portions (1 cm long) thereof adjacent to the prostate were used as vas deferens preparations. A preparation was longitudinally suspended in a Magnus tube filled with 20 ml of Krebs-Henseleit nutrient solution [gassed with 95% O2 -5% CO2 and kept at 32° C.; containing […] yohimbine (a2 antagonist)] with an initial tension of 1.0 g. The tension of the preparation was recorded isometrically. After the preparation was equilibrated for 30 minutes, electrical stimuli (0.5 ms, 30 V) were applied thereto by means of a bipolar electrode to induce contractions at intervals of 20 seconds. […] Responses to McN A-343 were expressed as percentages based on the amount of contraction before administration of McN A-343. The antagonistic potency (KB value) of the test compound was determined from the degree of shift of the dose-response curve obtained by treatment with the test compound.

[2] = molecular target: T1, airway M3 receptors (trachea) (Rattus norvegicus, UniProt P08483); assay: Antagonism against airway M3 receptors in an isolated rat trachea
T1 construct: the trachea was excised; from tissue; host or cells: isolated rat trachea
T1 sequence (P08483 whole entry): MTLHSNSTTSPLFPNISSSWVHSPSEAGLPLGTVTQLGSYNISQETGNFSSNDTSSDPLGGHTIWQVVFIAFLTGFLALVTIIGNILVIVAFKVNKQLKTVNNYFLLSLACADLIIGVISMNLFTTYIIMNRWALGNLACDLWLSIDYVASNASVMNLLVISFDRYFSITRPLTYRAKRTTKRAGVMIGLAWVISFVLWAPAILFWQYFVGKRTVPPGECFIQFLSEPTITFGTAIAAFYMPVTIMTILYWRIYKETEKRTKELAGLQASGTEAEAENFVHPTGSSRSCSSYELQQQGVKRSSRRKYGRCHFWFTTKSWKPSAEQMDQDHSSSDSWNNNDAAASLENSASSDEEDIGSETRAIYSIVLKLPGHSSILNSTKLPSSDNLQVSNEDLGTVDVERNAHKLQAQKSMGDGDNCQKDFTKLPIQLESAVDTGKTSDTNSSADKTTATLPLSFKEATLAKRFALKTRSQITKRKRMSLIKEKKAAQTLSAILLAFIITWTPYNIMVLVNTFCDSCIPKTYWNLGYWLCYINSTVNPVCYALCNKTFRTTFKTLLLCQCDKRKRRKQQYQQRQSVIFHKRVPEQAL
Procedure: 3) Tests for antagonism against the airway M3 receptors in an isolated rat trachea
These tests were performed according to an ordinary method. A male SD strain rat (weighing 300-500 g) was killed by exsanguination, and the trachea was excised. Annular segments (2 mm wide) were cut out from the trachea and cut open at the anterior cartilage part to make transversely sectioned trachea preparations. A preparation was suspended in a Magnus tube filled with 5 ml of Krebs-Henseleit nutrient solution (gassed with 95% O2 -5% CO2 and kept at 32° C.) with an initial tension of 1.0 g and a resting tension of 0.6 g. The tension of the preparation was recorded isometrically. After being equilibrated for an hour, the preparation was made to contract twice by treatment with 10^-4 M carbachol, and the second contraction induced by carbachol was used as the reference contraction. After the preparation was washed with fresh solution to make a return to the base line, a test compound was administered thereto (or no treatment was made). Ten minutes later, carbachol (10^-8 to 10^-3 M) was cumulatively administered in three-fold increasing doses to obtain a dose-response curve. The dose-response curve was constructed by expressing responses as percentages based on the reference contraction of the preparation. The antagonistic potency (KB value) of the test compound (i.e., a compound in accordance with the present invention) was determined from the degree of shift of the dose-response curve obtained by treatment with the test compound.

muscarinic M3 receptor [3] = molecular target: T2, muscarinic M3 receptor (Rattus norvegicus, UniProt P08483); assay: in vivo; parameters: from tissue; host or cells: living rat, airways; conditions: iv, 5 min, read-out: Airway contraction ID50
T2 sequence (P08483 whole entry): as above
Procedure: (§1) Tests for antagonism against muscarinic M3 receptor (in vivo)
1) Tests for bronchodilation in rats
Eight- to eleven-weeks-old male rats of the Sprague-Dawley strain, weighing 300-400 g, were anesthetized with urethane (750 mg/kg, i.p.) and a-chloralose (37.5 mg/kg, i.p.). A bronchus was intubated, and the right jugular vein was cannulated for drug administration. […] To evoke an increase in airway resistance, acetylcholine (50 μg/kg, i.v.) was administered to the animals. Mean values for the acetylcholine-induced increase in airway resistance as measured five minutes before (control) and five minutes after test compound administration were calculated and the results were expressed as percentages of the control response. The ID50 value was calculated from the dose-response curve of the test compound using probit analysis and defined as the drug dose that inhibited the acetylcholine-induced increase in airway resistance in the control group by 50 %.

muscarinic M3 receptor [4] = molecular target: T2, muscarinic M3 receptor; assay: in vivo; parameters: from tissue; host or cells: living rat, airways; conditions: iv, read-out: Salivary secretion ID50
Procedure: as §1
2) Tests for salivary secretion in rats
Five- to seven-weeks-old male rats of the Sprague-Dawley strain were anesthetized with sodium pentobarbital (65 mg/kg, i.p.), and a cannula was inserted into the right jugular vein for purposes of drug administration. A test compound was administered intravenously. Five minutes later, carbachol (10 μg/kg, i.v.) was administered to evoke salivary secretion. For each rat, saliva collection was started immediately after carbachol administration and continued for ten minutes. This was carried out by inserting glass capillaries (Drummond, 100 μl) into the oral cavity of the rat at intervals of one minute. The amount of collected saliva was determined on the assumption that a length of 75 mm of the glass capillary corresponded to 100 μl. Physiological saline was used in the control group. The ID50 value was calculated from the dose-response curve of the test compound using probit analysis and defined as the drug dose that inhibited the carbachol-induced salivation in the control group by 50%.

`CC(C)=CCCN1CCC(NC(=O)C(O)(c2ccccc2)C2CCC2)CC1` (stereo not drawn) [Example 1, N-[1-(4-methyl-3-pentenyl)-piperidin-4-yl]-2-cyclobutyl-2-hydroxy-2-phenylacetamide] was tested, and the Kb [1] was 120 nM, the Kb ([2]; in vitro, isolated rat trachea, agonist carbachol) was 19 nM and the “M2/M3 *” value ([2]; ratio of KB, right atrium M2 over trachea M3 (* Trachea M3)) was 79. For the same compound, the “M1/M3 *” value ([2]; ratio of KB, vas deferens M1 over trachea M3 (* Trachea M3)) was 6.3, the ED50 (muscarinic M3 receptor [3]) was 0.023 mg/kg and the ED50 (muscarinic M3 receptor [4]) was 0.19 mg/kg.
